In patent publication US7166597B2, “Fused pyrazole derivatives being protein kinase inhibitors” (Glaxo Group Limited, priority 2000, dated 2007):
pIC50: −log10 of the molar value. Like-named read-outs stand apart in the source and are kept apart here.

Experiments:
[1] = molecular target: T1, p38 kinase (Homo sapiens, UniProt Q16539); experiment: p38 Kinase Assay; assay type: biochemical
T1 construct: GST (N); made in house; host or cells: E. coli
Description: The peptide substrate used in the p38 assay was biotin-IPTSPITTTYFFFRRR-amide. The p38 and MEK6 proteins were purified to homogeneity from E. coli expression systems. The fusion proteins were tagged at the N-terminus with Glutathione-S-Transferase (GST). The maximum activation was achieved by incubating 20 uL of a reaction mixture of 30 nM MEK6 protein and 120 nM p38 protein in the presence of 1.5 uM peptide and 10 mM Mg (CH3CO2)2 in 100 mM HEPES7 pH 7.5, added to 15 uL of a mixture of 1.5 uM ATP with 0.08 uCi [g-^33P]ATP, with or without 15 uL of inhibitor in 6% DMSO. The controls were reactions in the presence (negative controls) or absence (positive controls) of 50 mM EDTA. Reactions were allowed to proceed for 60 min at room temperature and quenched with addition of 50 uL of 250 mM EDTA and mixed with 150 uL of Streptavidin SPA beads (Amersham) to 0.5 mg/reaction. The Dynatech Microfluor white U-bottom plates were sealed and the beads were allowed to settle overnight. The plates were counted in a Packard TopCount for 60 seconds. IC50 values were obtained by fitting raw data to % I=100*(1−(I−C2)/(C1−C2)), where I was […], C1 was positive control, and C2 was negative control.

[2] = molecular target: T2, JNK3 kinase (Jnk-3alpha-2) (Homo sapiens, UniProt P53779); experiment: JNK3 Kinase Assay; assay type: biochemical
T2 construct: Jnk-3alpha-2 (as a truncated construct, residues 39 to 224) was expressed in E. coli as a GST fusion protein; Following purification the GST portion was removed by thrombin cleavage; fused on or other part: An N-terminal GST tag was used for expression and removed by thrombin cleavage before the assay
Description: JNK3 Kinase Assay Jnk-3alpha-2 (as a truncated construct, residues 39 to 224) was expressed in E. coli as a GST fusion protein. Following purification the GST portion was removed by thrombin cleavage. The enzyme was stored at −80° C. Substrate c-Jun was expressed as a GST fusion protein including a signal peptide (biotinylation site) in E. coli. Following purification the substrate was biotinylated on a specific lysine in the signal peptide using biotin ligase. Prior to assay Jnk-3 was pre-activated by incubation with MgATP. The enzyme (10 nM) was screened in 40 mM HEPES (pH 7.4), 150 mM NaCl, 20 mM glycerophosphate, 1 mM DTT, 0.2 mM vanadate, 200 nM biotin-c-Jun, 5 mM MgCl2 and 10 uM ATP. Inhibitors were added over a conc range of from 0 to 10 uM in DMSO (fc 3%). The reaction was stopped by the addition of 25 mM EDTA. Phospho-c-Jun was detected using homogeneous time resolved fluorescence (HTRF) with a Eu-labelled antiphosphoserine (Serine 73) and streptavidin APC.

[3] = test system: TNF release from human peripheral blood mononuclear cells (PBMNC); experiment: Cell Based Assay for Cytokines Production in PBMNC (TNF release after LPS); conditions: PBMC, read-out: TNF/PBMNC (inhibition of TNF release from human PBMNC following stimulation with LPS, IC50)
Description: Cell Based Assay for Cytokines Production in PBMNC
Human peripheral blood mononuclear cells were isolated from heparinized blood by LSM (Organon Teknika) from volunteer donors. Purified human peripheral blood mononuclear cells were then suspended at a concentration of 2×10^6 cells/ml in RPMI 1640 medium supplemented with 10% heat-inactivated FBS and 1% antibiotics. Aliquots of 100 μl (2×10^5 cells) were added to 96-well microliter plates. Test compounds at […] dose ranges (final-DMSO concentration in culture medium was 0.1%) were then added to the cells for 10–15 minutes before the addition of lipopolysaccharide (1 ng/ml). After incubation at 37° C. in a 5% CO2 incubator for 18–20 h, cell free supernatants were collected by centrifugation at 800 g. The supernatant was then assayed for the amount of TNFα and IL-1β by using Quantikine immunoassay kits developed by R&D Systems (Minneapolis, Minn.).

[4] = Table 9, p38 assays using Assay II, read-out: p38 IC50
[5] = Table 8, compounds wherein Z is N, read-out: p38 kinase (inhibition of p38 kinase, IC50)
[6] = Table 8, read-out: JNK3 kinase (inhibition of JNK3 kinase, IC50)

T1 sequence (Q16539 whole entry): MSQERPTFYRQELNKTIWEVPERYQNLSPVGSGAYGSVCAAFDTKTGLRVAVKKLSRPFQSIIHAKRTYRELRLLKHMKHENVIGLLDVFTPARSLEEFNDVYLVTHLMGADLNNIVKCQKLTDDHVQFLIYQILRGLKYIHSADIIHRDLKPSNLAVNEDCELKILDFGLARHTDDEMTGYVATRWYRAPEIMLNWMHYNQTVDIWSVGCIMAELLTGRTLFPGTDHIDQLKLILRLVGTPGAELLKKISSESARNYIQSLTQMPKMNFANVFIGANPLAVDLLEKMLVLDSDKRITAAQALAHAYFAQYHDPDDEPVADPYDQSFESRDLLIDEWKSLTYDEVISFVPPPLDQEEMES
T2 sequence (P53779 39-402 limits assumed): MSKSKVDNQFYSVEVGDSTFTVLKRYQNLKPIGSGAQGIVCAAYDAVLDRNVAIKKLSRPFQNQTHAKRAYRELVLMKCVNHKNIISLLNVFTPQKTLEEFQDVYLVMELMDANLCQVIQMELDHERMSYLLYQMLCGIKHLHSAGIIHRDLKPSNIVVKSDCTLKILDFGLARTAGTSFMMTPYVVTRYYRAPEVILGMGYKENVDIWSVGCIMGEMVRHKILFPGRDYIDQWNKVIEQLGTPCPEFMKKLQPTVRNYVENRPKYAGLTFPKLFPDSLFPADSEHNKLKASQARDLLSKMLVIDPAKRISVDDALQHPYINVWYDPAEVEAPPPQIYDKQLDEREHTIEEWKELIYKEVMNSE

Row | pIC50 [1, 4] | pIC50 ([2]; Table 9, read-out: JNK3 IC50) | SMILES | further results
1 | 6.00 to 7.00 | 5.00 to 6.00 | Fc1ccc(-c2nn3cc(C(F)(F)F)ccc3c2-c2ccnc(NCCN3CCCCC3)n2)cc1Cl [Example 109, N-{4-[2-(3-chloro-4-fluorophenyl)-6-(trifluoromethyl)pyrazolo[1,5-a]pyridin-3-yl]pyrimidin-2-yl}-N-(2-piperidin-1-ylethyl)amine] | 
2 |  |  | Cc1ccc(C)c(Oc2nccc(-c3c(-c4ccc(F)cc4)nn4cc(C(F)(F)F)ccc34)n2)c1 [Example 86, 3-[2-(2,5-Dimethylphenoxy)pyrimidin-4-yl]-2-(4-fluorophenyl)-6-(trifluoromethyl)pyrazolo[1,5-a]pyridine] | pIC50 [1, 5]: > 6.30; pIC50 [2, 6]: > 6.30
3 | 7.00 to 8.00 | 6.00 to 7.00 | CCN(CC)CCCCNc1nccc(-c2c(-c3cccc(Cl)c3)nn3cc(C(F)(F)F)ccc23)n1 [Example 94, N-{4-[2-(3-chlorophenyl)-6-(trifluoromethyl)pyrazolo[1,5-a]pyridin-3-yl]pyrimidin-2-yl}-N-[4-(diethylamino)butyl]amine] | 
4 | 6.00 to 7.00 | 5.00 to 6.00 | FC(F)(F)c1ccc2c(-c3ccnc(NCCN4CCCC4)n3)c(-c3cccc(Cl)c3)nn2c1 [Example 105, N-{4-[2-(3-chlorophenyl)-6-(trifluoromethyl)pyrazolo[1,5-a]pyridin-3-yl]pyrimidin-2-yl}-N-(2-pyrrolidin-1-ylethyl)amine] | 
5 | 6.00 to 7.00 | 6.00 to 7.00 | Fc1ccc(-c2nn3cc(C(F)(F)F)ccc3c2-c2ccnc(NCCCN3CCCCC3)n2)cc1Cl [Example 113, N-{4-[2-(3-chloro-4-fluorophenyl)-6-(trifluoromethyl)pyrazolo[1,5-a]pyridin-3-yl]pyrimidin-2-yl}-N-(3-piperidin-1-ylpropyl)amine] | 
6 | 5.00 to 6.00 | 5.00 to 6.00 | CCCN1CCN(CCNc2nccc(-c3c(-c4ccc(C(F)(F)F)cc4)nn4cc(C(F)(F)F)ccc34)n2)CC1 [Example 127, N-[2-(4-propylpiperazin-1-yl)ethyl]-N-(4-{6-(trifluoromethyl)-2-[4-(trifluoromethyl)phenyl]pyrazolo[1,5-a]pyridin-3-yl}pyrimidin-2-yl)amine] | 
7 | 6.00 to 7.00 | 5.00 to 6.00 | FC(F)(F)c1ccc2c(-c3ccnc(NCCN4CCCCCC4)n3)c(-c3cccc(Cl)c3)nn2c1 [Example 117, N-(2-azepan-1-ylethyl)-N-{4-[2-(3-chlorophenyl)-6-(trifluoromethyl)pyrazolo[1,5-a]pyridin-3-yl]pyrimidin-2-yl}amine] | 
8 | 7.00 to 8.00 | 6.00 to 7.00 | CCN(CC)CCCCNc1nccc(-c2c(-c3ccc(F)c(Cl)c3)nn3cc(C(F)(F)F)ccc23)n1 [Example 93, N-{4-[2-(3-chloro-4-fluorophenyl)-6-(trifluoromethyl)pyrazolo-[1,5-a]pyridin-3-yl]pyrimidin-2-yl}-N-[4-(diethylamino)butyl]amine] | 
9 | 6.00 to 7.00 | 5.00 to 6.00 | CCCN(CCC)CCNc1nccc(-c2c(-c3cccc(Cl)c3)nn3cc(C(F)(F)F)ccc23)n1 [Example 99, N-{4-[2-(3-chlorophenyl)-6-(trifluoromethyl)pyrazolo[1,5-a]pyridin-3-yl]pyrimidin-2-yl}-N-[2-(dipropylamino)ethyl]amine] | 
10 |  |  | Fc1ccc(-c2nn3ccccc3c2-c2ccnc(NCCc3cnc[nH]3)n2)cc1 [Example 80, 4-[2-(4-Fluorophenyl)pyrazolo[1,5-a]pyridin-3-yl]-N-[2-(1H-imidazol-5-yl)ethyl]-2-pyrimidinamine] | pIC50 [1, 5]: > 6.30; pIC50 ([3]; Table 8, LPS stimulation): > 6.30
11 | 6.00 to 7.00 | 6.00 to 7.00 | Fc1ccc(-c2nn3cc(C(F)(F)F)ccc3c2-c2ccnc(NCCCN3CCOCC3)n2)cc1Cl [Example 122, N-{4-[2-(3-chloro-4-fluorophenyl)-6-(trifluoromethyl)pyrazolo[1,5-a]pyridin-3-yl]pyrimidin-2-yl}-N-(3-morpholin-4-ylpropyl)amine] | 
12 |  |  | Fc1ccc(-c2nn3cc(C(F)(F)F)ccc3c2-c2ccncc2)cc1 [Example 23, 2-(4-Fluorophenyl)-3-(4-pyridinyl)-6-(trifluoromethyl)pyrazolo[1,5-a]pyridine] | pIC50 ([1]; Table 7, compounds wherein Z is CH, read-out: P38 kinase (inhibition of p38 kinase, IC50)): > 6.30; pIC50 ([3]; Table 7, LPS stimulation): > 6.30
13 | 7.00 to 8.00 | 6.00 to 7.00 | CCCN1CCN(CCNc2nccc(-c3c(-c4ccc(F)c(Cl)c4)nn4cc(C(F)(F)F)ccc34)n2)CC1 [Example 128, N-{4-[2-(3-chloro-4-fluorophenyl)-6-(trifluoromethyl)pyrazolo-[1,5-a]pyridin-3-yl]pyrimidin-2-yl}-N-[2-(4-propylpiperazin-1-yl)ethyl]amine] | 
14 | 6.00 to 7.00 | 5.00 to 6.00 | CN(C)CCCNc1nccc(-c2c(-c3ccc(F)cc3)nn3cc(C(F)(F)F)ccc23)n1 [Example 87, N-[3-(dimethylamino)propyl]-N-[4-{2-(4-fluorophenyl)-6-(trifluoromethyl)pyrazolo[1,5-a]pyridin-3-yl}pyrimidin-2-yl]amine] | 
15 |  |  | Fc1ccc(-c2nn3ccccc3c2-c2ccnc(NC3CC3)n2)cc1 [Example 61, N-Cyclopropyl-4-[2-(4-fluorophenyl)pyrazolo[1,5-a]pyridin-3-yl]-2-pyrimidinamine] | pIC50 [1, 5]: > 6.30; pIC50 [2, 6]: > 6.30
16 | 5.00 to 6.00 | 5.00 to 6.00 | CN(C)CCCNc1nccc(-c2c(-c3ccc(C(F)(F)F)cc3)nn3cc(C(F)(F)F)ccc23)n1 [Example 88, N-[3-(dimethylamino)propyl]-N-[4-{6-(trifluoromethyl)-2-[4-(trifluoromethyl)phenyl]pyrazolo[1,5-a]pyridin-3-yl}pyrimidin-2-yl]amine] | 
17 | 7.00 to 8.00 | 6.00 to 7.00 | Fc1ccc(-c2nn3cc(C(F)(F)F)ccc3c2-c2ccnc(NCCN3CCOCC3)n2)cc1Cl [Example 120, N-{4-[2-(3-chloro-4-fluorophenyl)-6-(trifluoromethyl)pyrazolo[1,5-a]pyridin-3-yl]pyrimidin-2-yl}-N-(2-morpholin-4-ylethyl)amine] | 
18 | 7.00 to 8.00 | 6.00 to 7.00 | FC(F)(F)c1ccc2c(-c3ccnc(NCCCN4CCOCC4)n3)c(-c3cccc(Cl)c3)nn2c1 [Example 123, N-{4-[2-(3-chlorophenyl)-6-(trifluoromethyl)pyrazolo[1,5-a]pyridin-3-yl]pyrimidin-2-yl}-N-(3-morpholin-4-ylpropyl)amine] | 
19 | 7.00 to 8.00 | 6.00 to 7.00 | CN1CCN(CCCNc2nccc(-c3c(-c4ccc(F)cc4)nn4cc(C(F)(F)F)ccc34)n2)CC1 [Example 124, N-{4-[2-(4-fluorophenyl)-6-(trifluoromethyl)pyrazolo[1,5-a]pyridin-3-yl]pyrimidin-2-yl}-N-[3-(4-methylpiperazin-1-yl)propyl]amine] | 
